Organism: Rattus norvegicus
Experiment: Open TG-GATES - Regimen: Daily Repeat
Assay type: toxicity, organism-based, Sprague-Dawley
Set-up: regimen Daily Repeat, gender Male, age 6 weeks
Conditions: in vivo, po, 10 mg/kg, route gavage, dose level Low; for APTT / Bas / Eos / Fbg / Hb / Ht / Lym / MCH / MCHC / MCV / Mono / Neu / PT / Plat / RBC / Ret / WBC: tissue Blood; for KIDNEY_L / KIDNEY_R / KIDNEY_TOTAL: tissue Kidney; for LIVER: tissue Liver; for A/G / ALP / ALT / AST / BUN / CRE / Ca / Cl / DBIL / GLC / IP / K / LDH / Na / PL / RALB / TBIL / TC / TG / TP / gamma-GTP: tissue Plasma

OCCOCCN1CCN(C(c2ccccc2)c2ccc(Cl)cc2)CC1 (configuration not stated) [HYDROXYZINE]
TERMINAL_BW (72 h, time 3 day): 228.1 g | APTT (72 h, time 3 day): 16.3 s | Bas (72 h, time 3 day): 0% | Eos (72 h, time 3 day): 1% | Fbg (72 h, time 3 day): 261.4 mg/dL | Hb (72 h, time 3 day): 13 g/dL | Ht (72 h, time 3 day): 39.4% | Lym (72 h, time 3 day): 75.6% | MCH (72 h, time 3 day): 21.8 pg | MCHC (72 h, time 3 day): 33% | MCV (72 h, time 3 day): 65.9 fL | Mono (72 h, time 3 day): 2.6% | Neu (72 h, time 3 day): 20.2% | PT (72 h, time 3 day): 16 s | Plat (72 h, time 3 day): 110.5 x10_4/uL | RBC (72 h, time 3 day): 598 x10_4/ul | Ret (72 h, time 3 day): 7.3% | WBC (72 h, time 3 day): 96.2 x10_2/uL | KIDNEY_L (72 h, time 3 day): 1 g | KIDNEY_R (72 h, time 3 day): 1 g | KIDNEY_TOTAL (72 h, time 3 day): 2 g | LIVER (72 h, time 3 day): 10.8 g | A/G (72 h, time 3 day): 0.8 | ALP (72 h, time 3 day): 1662 IU/L | ALT (72 h, time 3 day): 51.2 IU/L | AST (72 h, time 3 day): 82.4 IU/L | BUN (72 h, time 3 day): 16.2 mg/dL | CRE (72 h, time 3 day): 0.2 mg/dL | Ca (72 h, time 3 day): 10.8 mg/dL | Cl (72 h, time 3 day): 105.6 meq/L | DBIL (72 h, time 3 day): 0.018 mg/dL | GLC (72 h, time 3 day): 182 mg/dL | IP (72 h, time 3 day): 7.7 mg/dL | K (72 h, time 3 day): 4 meq/L | LDH (72 h, time 3 day): 98.8 IU/L | Na (72 h, time 3 day): 142.8 meq/L | PL (72 h, time 3 day): 139 mg/dL | RALB (72 h, time 3 day): 2.6 g/dL | TBIL (72 h, time 3 day): 0.054 mg/dL | TC (72 h, time 3 day): 71.6 mg/dL | TG (72 h, time 3 day): 76 mg/dL | TP (72 h, time 3 day): 5.6 g/dL | gamma-GTP (72 h, time 3 day): 0.8 IU/L | TERMINAL_BW ([…], time 7 day): 259.3 g | TERMINAL_BW ([…], time 14 day): 323.3 g | TERMINAL_BW ([…], time 28 day): 416.4 g | APTT ([…], time 7 day): 17 s | Bas ([…], time 7 day): 0% | Eos ([…], time 7 day): 1% | Fbg ([…], time 7 day): 263 mg/dL | Hb ([…], time 7 day): 13.8 g/dL | Ht ([…], time 7 day): 41.3% | Lym ([…], time 7 day): 80.6% | MCH ([…], time 7 day): 21.5 pg | MCHC ([…], time 7 day): 33.5% | MCV ([…], time 7 day): 64.4 fL | Mono ([…], time 7 day): 1.8% | Neu ([…], time 7 day): 16.2% | PT ([…], time 7 day): 15.7 s | Plat ([…], time 7 day): 117.5 x10_4/uL | RBC ([…], time 7 day): 643 x10_4/ul | Ret ([…], time 7 day): 5.9% | WBC ([…], time 7 day): 88.4 x10_2/uL | APTT ([…], time 14 day): 18.1 s | Bas ([…], time 14 day): 0% | Eos ([…], time 14 day): 0.8% | Fbg ([…], time 14 day): 266.4 mg/dL | Hb ([…], time 14 day): 14.2 g/dL | Ht ([…], time 14 day): 41.7% | Lym ([…], time 14 day): 81.2% | MCH ([…], time 14 day): 20.7 pg | MCHC ([…], time 14 day): 34% | MCV ([…], time 14 day): 60.9 fL | Mono ([…], time 14 day): 2.4% | Neu ([…], time 14 day): 15% | PT ([…], time 14 day): 15.7 s | Plat ([…], time 14 day): 111 x10_4/uL | RBC ([…], time 14 day): 685.8 x10_4/ul | Ret ([…], time 14 day): 4.3% | WBC ([…], time 14 day): 106.7 x10_2/uL | APTT ([…], time 28 day): 18.3 s | Bas ([…], time 28 day): 0% | Eos ([…], time 28 day): 1% | Fbg ([…], time 28 day): 297.2 mg/dL | Hb ([…], time 28 day): 15.4 g/dL | Ht ([…], time 28 day): 43.7% | Lym ([…], time 28 day): 80.4% | MCH ([…], time 28 day): 20.6 pg | MCHC ([…], time 28 day): 35.2% | MCV ([…], time 28 day): 58.4 fL | Mono ([…], time 28 day): 2% | Neu ([…], time 28 day): 15% | PT ([…], time 28 day): 15.9 s | Plat ([…], time 28 day): 90.9 x10_4/uL | RBC ([…], time 28 day): 748.8 x10_4/ul | Ret ([…], time 28 day): 2.6% | WBC ([…], time 28 day): 105.9 x10_2/uL | KIDNEY_L ([…], time 7 day): 1.1 g | KIDNEY_R ([…], time 7 day): 1.1 g | KIDNEY_TOTAL ([…], time 7 day): 2.1 g | KIDNEY_L ([…], time 14 day): 1.3 g | KIDNEY_R ([…], time 14 day): 1.3 g | KIDNEY_TOTAL ([…], time 14 day): 2.7 g | KIDNEY_L ([…], time 28 day): 1.4 g | KIDNEY_R ([…], time 28 day): 1.4 g | KIDNEY_TOTAL ([…], time 28 day): 2.8 g | LIVER ([…], time 7 day): 12.6 g | LIVER ([…], time 14 day): 14.7 g | LIVER ([…], time 28 day): 16.8 g | A/G ([…], time 7 day): 0.9 | ALP ([…], time 7 day): 1602.2 IU/L | ALT ([…], time 7 day): 41 IU/L | AST ([…], time 7 day): 65.8 IU/L | BUN ([…], time 7 day): 17.4 mg/dL | CRE ([…], time 7 day): 0.2 mg/dL | Ca ([…], time 7 day): 11.1 mg/dL | Cl ([…], time 7 day): 106 meq/L | DBIL ([…], time 7 day): 0.018 mg/dL | GLC ([…], time 7 day): 189 mg/dL | IP ([…], time 7 day): 7.2 mg/dL | K ([…], time 7 day): 4.3 meq/L | LDH ([…], time 7 day): 66.2 IU/L | Na ([…], time 7 day): 142.6 meq/L | PL ([…], time 7 day): 158.2 mg/dL | RALB ([…], time 7 day): 2.7 g/dL | TBIL ([…], time 7 day): 0.052 mg/dL | TC ([…], time 7 day): 72.6 mg/dL | TG ([…], time 7 day): 118.4 mg/dL | TP ([…], time 7 day): 5.9 g/dL | gamma-GTP ([…], time 7 day): 0.8 IU/L | A/G ([…], time 14 day): 0.8 | ALP ([…], time 14 day): 1484.2 IU/L | ALT ([…], time 14 day): 40.8 IU/L | AST ([…], time 14 day): 67.2 IU/L | BUN ([…], time 14 day): 15.4 mg/dL | CRE ([…], time 14 day): 0.2 mg/dL | Ca ([…], time 14 day): 10.6 mg/dL | Cl ([…], time 14 day): 103.6 meq/L | DBIL ([…], time 14 day): 0.016 mg/dL | GLC ([…], time 14 day): 184.6 mg/dL | IP ([…], time 14 day): 7.3 mg/dL | K ([…], time 14 day): 4 meq/L | LDH ([…], time 14 day): 86.2 IU/L | Na ([…], time 14 day): 141.6 meq/L | PL ([…], time 14 day): 163 mg/dL | RALB ([…], time 14 day): 2.7 g/dL | TBIL ([…], time 14 day): 0.052 mg/dL | TC ([…], time 14 day): 74.8 mg/dL | TG ([…], time 14 day): 142.4 mg/dL | TP ([…], time 14 day): 6 g/dL | gamma-GTP ([…], time 14 day): 0.6 IU/L | A/G ([…], time 28 day): 0.8 | ALP ([…], time 28 day): 1346.6 IU/L | ALT ([…], time 28 day): 41.4 IU/L | AST ([…], time 28 day): 69.6 IU/L | BUN ([…], time 28 day): 17.4 mg/dL | CRE ([…], time 28 day): 0.2 mg/dL | Ca ([…], time 28 day): 10.6 mg/dL | Cl ([…], time 28 day): 105 meq/L | DBIL ([…], time 28 day): 0.012 mg/dL | GLC ([…], time 28 day): 196.8 mg/dL | IP ([…], time 28 day): 6.8 mg/dL | K ([…], time 28 day): 4 meq/L | LDH ([…], time 28 day): 100.8 IU/L | Na ([…], time 28 day): 142.6 meq/L | PL ([…], time 28 day): 154.8 mg/dL | RALB ([…], time 28 day): 2.8 g/dL | TBIL ([…], time 28 day): 0.05 mg/dL | TC ([…], time 28 day): 76.8 mg/dL | TG ([…], time 28 day): 113.4 mg/dL | TP ([…], time 28 day): 6.3 g/dL | gamma-GTP ([…], time 28 day): 0.8 IU/L

Reference: ChEMBL document CHEMBL3885861, “Open TG-GATES”
